For experiment [1], the target named is wild-type EZH2 (PRC2 enzyme) (Homo sapiens (Human), UniProt Q15910). Nature of the experiment: PRC2 enzyme assay on peptide substrate (wild-type EZH2). Type of experiment: biochemical. The note with it: wild-type PRC2 4 nM, H3K27me0 peptide substrate, 3H-SAM; read-out: WT EZH2 IC50. An excerpt:
S-adenosylmethionine (SAM), S-adenosylhomocyteine (SAH), bicine, KCl, Tween20, dimethylsulfoxide (DMSO) and bovine skin gelatin (BSG) were purchased from Sigma-Aldrich at the highest level of purity possible. Dithiothreitol (DTT) was purchased from EMD. ^3H-SAM was purchased from American Radiolabeled Chemicals with a specific activity of 80 Ci/mmol. 384-well streptavidin Flashplates were purchased from PerkinElmer.
Peptides representative of human histone H3 residues 21-44 containing either an unmodified lysine 27 (H3K27me0) or dimethylated lysine 27 (H3K27me2) were synthesized with a C-terminal G(K-biotin) linker-affinity tag motif and a C-terminal amide cap by 21st Century Biochemicals. The peptides were high-performance liquid chromatography (HPLC) purified to greater than 95% purity and confirmed by liquid chromatography mass spectrometry (LC-MS). The sequences are listed below.
Human PRC2 enzymes were purified as 4-component enzyme complexes co-expressed in Spodoptera frugiperda (sf9) cells using a baculovirus expression system. The subunits expressed were wild-type EZH2 (NM_004456) or EZH2 Y641F, N, H, S or C mutants generated from the wild-type EZH2 construct, EED (NM_003797), Suz12 (NM_015355) and RbAp48 (NM_005610). The EED subunit contained an N-terminal FLAG tag that was used to purify the entire 4-component complex from sf9 cell lysates. The purity of the complexes met or exceeded 95% as determined by SDS-PAGE and Agilent Bioanalyzer analysis. Concentrations of enzyme stock concentrations (generally 0.3-1.0 mg/mL) was determined using a Bradford assay against a bovine serum albumin (BSA) standard.
The assays were all performed in a buffer consisting of 20 mM bicine (pH=7.6), 0.5 mM DTT, 0.005% BSG and 0.002% Tween20, prepared on the day of use. […] The plates were then read in a PerkinElmer TopCount platereader to measure the quantity of ^3H-labeled peptide bound to the Flashplate surface, measured as disintegrations per minute (dpm) or alternatively, referred to as counts per minute (cpm). […]

The subject of experiment [2] is H3K27me3 in WSU-DLCL2 cells. The experiment is described as follows: WSU-DLCL2 methylation assay (H3K27me3 ELISA). Type of experiment: cell-based. The note with it: Homo sapiens, WSUDLCL2, 96 hours incubation, H3K27me3 normalized to total H3. An excerpt: WSU-DLCL2 suspension cells were purchased from DSMZ (German Collection of Microorganisms and Cell Cultures, Braunschweig, Germany). RPMI/Glutamax Medium, Penicillin-Streptomycin, Heat Inactivated Fetal Bovine Serum, and D-PBS were purchased from Life Technologies, Grand Island, N.Y., USA. Extraction Buffer and Neutralization Buffer (5×) were purchased from Active Motif, Carlsbad, Calif., USA. Rabbit anti-Histone H3 antibody was purchased from Abcam, Cambridge, Mass., USA. Rabbit anti-H3K27me3 and HRP-conjugated anti-rabbit-IgG were purchased from Cell Signaling Technology, Danvers, Mass., USA. TMB “Super Sensitive” substrate was sourced from BioFX Laboratories, Owings Mills, Md., USA. IgG-free Bovine Serum Albumin was purchased from Jackson ImmunoResearch, West Grove, Pa., USA. PBS with Tween (10×PBST) was purchased from KPL, Gaithersburg, Md., USA. Sulfuric Acid was purchased from Ricca Chemical, Arlington, Tex., USA. Immulon ELISA plates were purchased from Thermo, Rochester, N.Y., USA. V-bottom cell culture plates were purchased from Corning Inc., Corning, N.Y., USA. V-bottom polypropylene plates were purchased from Greiner Bio-One, Monroe, N.C., USA.
WSU-DLCL2 suspension cells were maintained in growth medium (RPMI 1640 supplemented with 10% v/v heat inactivated fetal bovine serum and 100 units/mL penicillin-streptomycin) and cultured at 37° C. under 5% CO2. […]
A general note: In an ELISA, binding on a coated surface is turned into a signal by an enzyme label.

pIC50: −log10 of the molar value.

Broadly, the pIC50 is the negative decadic logarithm of the IC50, by convention in mol/L.

wild-type EZH2 (PRC2 enzyme), sequence (Q15910 other isoform, or with tags, fused parts or gaps): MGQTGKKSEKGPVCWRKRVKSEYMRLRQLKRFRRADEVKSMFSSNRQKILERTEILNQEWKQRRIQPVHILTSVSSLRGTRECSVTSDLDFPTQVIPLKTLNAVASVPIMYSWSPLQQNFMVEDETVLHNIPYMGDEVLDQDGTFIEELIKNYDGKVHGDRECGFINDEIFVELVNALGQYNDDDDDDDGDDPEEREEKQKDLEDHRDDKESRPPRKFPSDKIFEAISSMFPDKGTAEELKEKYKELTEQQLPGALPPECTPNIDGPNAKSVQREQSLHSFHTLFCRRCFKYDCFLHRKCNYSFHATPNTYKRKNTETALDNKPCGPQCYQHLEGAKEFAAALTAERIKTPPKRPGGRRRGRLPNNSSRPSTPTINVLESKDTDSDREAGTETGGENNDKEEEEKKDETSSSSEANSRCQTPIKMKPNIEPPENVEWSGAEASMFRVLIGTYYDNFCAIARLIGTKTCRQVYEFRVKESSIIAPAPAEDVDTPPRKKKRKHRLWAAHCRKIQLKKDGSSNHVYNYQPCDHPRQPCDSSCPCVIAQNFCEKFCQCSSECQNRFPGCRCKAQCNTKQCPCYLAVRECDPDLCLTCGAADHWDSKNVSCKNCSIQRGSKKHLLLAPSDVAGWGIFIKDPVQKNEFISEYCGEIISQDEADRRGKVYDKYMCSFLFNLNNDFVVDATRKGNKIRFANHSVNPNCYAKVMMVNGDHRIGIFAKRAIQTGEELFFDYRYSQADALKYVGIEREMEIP
wild-type EZH2 (PRC2 enzyme), sequence (O75530 whole entry partner): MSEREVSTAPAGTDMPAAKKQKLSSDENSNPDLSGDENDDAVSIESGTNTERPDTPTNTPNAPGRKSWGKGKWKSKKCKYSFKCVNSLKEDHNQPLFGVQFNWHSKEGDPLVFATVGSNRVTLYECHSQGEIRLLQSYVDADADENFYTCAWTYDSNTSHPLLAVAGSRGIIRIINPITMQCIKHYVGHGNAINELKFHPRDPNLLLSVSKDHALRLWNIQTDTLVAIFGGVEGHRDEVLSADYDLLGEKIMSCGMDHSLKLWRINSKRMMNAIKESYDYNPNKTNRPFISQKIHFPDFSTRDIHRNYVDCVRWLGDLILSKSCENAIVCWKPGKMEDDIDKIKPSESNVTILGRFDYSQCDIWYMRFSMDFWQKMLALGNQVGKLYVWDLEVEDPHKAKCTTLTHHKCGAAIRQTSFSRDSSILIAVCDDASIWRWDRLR
wild-type EZH2 (PRC2 enzyme), sequence (Q15022 whole entry partner): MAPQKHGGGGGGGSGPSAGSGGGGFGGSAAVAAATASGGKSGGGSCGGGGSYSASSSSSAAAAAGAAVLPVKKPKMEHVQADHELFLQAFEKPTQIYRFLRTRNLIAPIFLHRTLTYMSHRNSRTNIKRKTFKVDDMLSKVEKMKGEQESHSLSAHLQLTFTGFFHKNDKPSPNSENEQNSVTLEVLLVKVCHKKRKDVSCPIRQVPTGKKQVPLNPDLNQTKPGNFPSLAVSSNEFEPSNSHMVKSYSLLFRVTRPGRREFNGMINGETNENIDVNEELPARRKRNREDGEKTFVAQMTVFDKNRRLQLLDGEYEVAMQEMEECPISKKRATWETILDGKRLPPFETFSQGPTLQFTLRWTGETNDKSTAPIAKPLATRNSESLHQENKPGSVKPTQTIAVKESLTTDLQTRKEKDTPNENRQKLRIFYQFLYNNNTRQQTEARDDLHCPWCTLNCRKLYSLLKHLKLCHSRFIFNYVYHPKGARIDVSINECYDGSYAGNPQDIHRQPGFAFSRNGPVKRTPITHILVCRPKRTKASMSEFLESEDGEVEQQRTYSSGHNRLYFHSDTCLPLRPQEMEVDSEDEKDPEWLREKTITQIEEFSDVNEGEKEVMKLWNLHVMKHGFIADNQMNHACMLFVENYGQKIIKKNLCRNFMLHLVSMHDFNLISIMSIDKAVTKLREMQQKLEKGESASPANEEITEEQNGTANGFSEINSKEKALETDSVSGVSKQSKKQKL
wild-type EZH2 (PRC2 enzyme), sequence (Q09028 whole entry partner): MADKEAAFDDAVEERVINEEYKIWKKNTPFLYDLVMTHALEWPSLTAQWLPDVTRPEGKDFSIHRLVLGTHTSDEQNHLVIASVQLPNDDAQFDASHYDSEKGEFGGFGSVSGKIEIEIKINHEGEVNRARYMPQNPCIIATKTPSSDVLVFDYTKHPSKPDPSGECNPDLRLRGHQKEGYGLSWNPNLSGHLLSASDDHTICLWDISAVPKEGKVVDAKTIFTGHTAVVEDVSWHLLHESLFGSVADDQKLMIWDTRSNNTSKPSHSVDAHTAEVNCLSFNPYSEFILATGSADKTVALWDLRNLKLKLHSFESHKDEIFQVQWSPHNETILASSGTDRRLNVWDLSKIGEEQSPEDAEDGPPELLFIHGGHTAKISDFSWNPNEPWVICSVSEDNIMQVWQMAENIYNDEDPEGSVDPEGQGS

In the case of `Cc1cc(=O)c(CNC(=O)c2cc(C3=CC(C)(C)NC(C)(C)C3)nc3c2cnn3C(C)C)c(C)[nH]1` [Compound 1, N-((2,6-dimethyl-4-oxo-1,4-dihydropyridin-3-yl)methyl)-1-isopropyl-6-(2,2,6,6-tetramethyl-1,2,3,6-tetrahydropyridin-4-yl)-1H-pyrazolo[3,4-b]pyridine-4-carboxamide], in experiment [1], the pIC50 is 5.18.

Consider `Cc1cc(=O)c(CNC(=O)c2cc(C3CC(C)(C)NC(C)(C)C3)nc3c2cnn3C(C)C)c(C)[nH]1` [Compound 2, N-((2,6-dimethyl-4-oxo-1,4-dihydropyridin-3-yl)methyl)-1-isopropyl-6-(2,2,6,6-tetramethylpiperidin-4-yl)-1H-pyrazolo [3,4-b]pyridine-4-carboxamide], for which, in experiment [1], the negative-log IC50 (pIC50) is 5.15.

`CCC(C)n1cc(C)c2c(C(=O)NCc3c(C)[nH]c(C)cc3=O)cc(-c3ccc(N4CCNCC4)nc3)cc21` (stereo not shown) [Compound 4, 1-(sec-butyl)-N-((2,6-dimethyl-4-oxo-1,4-dihydropyridin-3-yl)methyl)-3-methyl-6-(6-(piperazin-1-yl)pyridin-3-yl)-1H-indole-4-carboxamide]: the negative logarithm of the IC50 (pIC50) in experiment [1] was 7.55; in experiment [2], 4.92.

(Values after US10150759B2, “1,4-pyridone bicycic heteroaryl compounds” (Epizyme, Inc., priority 2012, dated 2018).)
